Assay results reported in US20040038950A1, “Pharmaceutical composition for treating IL-1 related diseases or disorders” (priority 2002, published 2004).

Tests used:
human chondrocyte = assay: Cell proliferation, [3H]thymidine assay in chondrocyte alginate bead culture; type: cell-based; settings: 10-100 μM DHEA
Description: Chondrocytes were isolated from the knee joint of patient undergoing a knee replacement due to osteoarthritis. Cartilage was digested with 0.2% protease Type XIV (Sigma) for 1 hour, followed by 3-hour incubation with 0.2% collagenase Type IA (Sigma) at 37° C. Following the incubation, the undigested cartilage fragments were removed using a 70 μm Nylon sieve. Chondrocytes were washed with DPBS and maintained in monolayer culture for 7 days in Dulbecco's modified Eagle's medium (DMEM; Life Technologies Inc.) which contained 10% fetal bovine serum (FBS; Life Technologies), 100 units/ml penicillin-streptomycin (Life Technologies) and 25 μg/ml L-ascorbic acid (Sigma). All experiments were performed with primary or first passage cells. The preparation of chondrocytes in alginate beads was carried out with 4×10^6 cells per 1 ml of alginate. […]
For cell proliferation, [^3H]thymidine assay was performed on a 96-well plate (Nunc) with one alginate bead per well. […] After collecting the cells using a cell harvester (Wallac), [^3H]thymidine uptake was quantitated by measuring β emission on a β-counter (Wallac). […] The ^35SO4-labeled proteoglycan content was measured by a liquid scintillation counter (Wallac). The total cellular DNA was determined by Indole assay.

type I collagen mRNA = assay: RT-PCR of type I collagen mRNA in chondrocytes; type: cell-based, human; settings: 100 μM
Description: (§1) Chondrocytes were isolated from the knee joint of patient undergoing a knee replacement due to osteoarthritis. Cartilage was digested with 0.2% protease Type XIV (Sigma) for 1 hour, followed by 3-hour incubation with 0.2% collagenase Type IA (Sigma) at 37° C. Following the incubation, the undigested cartilage fragments were removed using a 70 μm Nylon sieve. Chondrocytes were washed with DPBS and maintained in monolayer culture for 7 days in Dulbecco's modified Eagle's medium (DMEM; Life Technologies Inc.) which contained 10% fetal bovine serum (FBS; Life Technologies), 100 units/ml penicillin-streptomycin (Life Technologies) and 25 μg/ml L-ascorbic acid (Sigma). All experiments were performed with primary or first passage cells. The preparation of chondrocytes in alginate beads was carried out with 4×10^6 cells per 1 ml of alginate. Alginate cultures were maintained for 7 days at 37° C., 5% CO2 and 95% humidity and incubated with various concentrations of DHEA (0, 10, 50 or 100 μM) for a varing period of time. DHEA was purchased from Sigma and used after dissolving either in ethanol or dimethyl sulfoxide (DMSO). After a desired incubation period, cells were harvested by solubilizing the alginate beads in citrate buffer (55 mM sodium citrate, 0.15 M NaCl, pH 7.0) for 10 min at 37° C. and by centrifugation (300 g, 5 min).
Total RNA from chondrocytes was extracted using RNeasy Mini Kit (QIAGEN). Reverse transcription from 1 μg of total RNA was conducted using First Strand cDNA Synthesis Kit (MBI Fermentas) according to manufacturer's recommendation with random hexamers. […] All reactions were determined to be in the linear range of amplification with the cycle number ranging from 14 to 30. The PCR products were analyzed by separation on a 2% agarose gel followed by ethidium bromide staining. Following electrophoresis, photographs were taken and analyzed using a densitometric program (TINA; Raytest Isotopenmeβgerate, Germany). […] After normalizing with respect to GAPDH, percentage increase or decrease was determined. […]

MMP-3 = assay: Western blot of MMP-3 in chondrocyte lysates; type: cell-based, human; settings: 0, 10 or 100 μ DHEA, three days
Description: as §1, with “After a desired incubation period, cells were harvested by solubilizing the alginate beads in citrate buffer (55 mM sodium citrate, 0.15 M NaCl, pH 7.0) for 10 min at 37° C. and by centrifugation (300 g, 5 min).” left out
To investigate the effect of DHEA on the protein concentration, Western blot analysis was performed. […] Protein concentration of the supernatant was determined by Bio-Rad protein assay (Bio-Rad, USA) using bovine serum albumin (BSA) as a standard. […]

[1] = tested on: (IL-1β)-induced MMP-1 mRNA; assay: (IL-1β)-induced MMP-1 mRNA expression in chondrocytes, RT-PCR; type: cell-based, human; settings: 72 hr
Description: (§2) Sixteen hours prior to a treatment, the complete culture medium was replaced with a serum-free medium. Chondrocyte alginate bead cultures were then treated with IL-1β ([…], (Calbiochem) and DHEA (0, 10, 50 or 100 μM) for 3 days.
(§3) Total RNA from chondrocytes was extracted using RNeasy Mini Kit (QIAGEN). Reverse transcription from 1 μg of total RNA was conducted using First Strand cDNA Synthesis Kit (MBI Fermentas) according to manufacturer's recommendation with random hexamers. The resulting cDNA was then amplified by polymerase chain reaction using AccuPower PCR Premix (Bioneer, Korea) in a final volume of 20 μl using three thermocycler temperatures (30 sec at […], 30 sec at 60° C., and 30 sec at […]). All reactions were determined to be in the linear range of amplification with the cycle number ranging from 14 to 30. The PCR products were analyzed by separation on a 2% agarose gel followed by ethidium bromide staining. Following electrophoresis, photographs were taken and analyzed using a densitometric program (TINA; Raytest Isotopenmeβgerate, Germany). Integrated density values for the genes in question were then normalized to the glyceraldehyde-3-phosphate dehydrogenase (GAPDH) values for a semiquantitative assessment. After normalizing with respect to GAPDH, percentage increase or decrease was determined. Each experiment was repeated at least three times. […]

[2] = tested on: (IL-1β)-induced IL-6 gene expression; assay: (IL-1β)-induced IL-6 gene expression in chondrocytes; type: cell-based, human; settings: 10, 50, 100 μM with IL-1β, 72 hr
Description: as §2, §3

type II collagen mRNA = assay: Osteoarthritic rabbit model (ACLT), intraarticular injection, RT-PCR of type II collagen; type: in vivo; settings: rabbit ACLT knee, intraarticular once a week for 5 weeks
Description: (§4) Mature New Zealand White rabbits underwent bilateral anterior cruciate ligament transection (ACLT). ACLT was performed using a medial arthrotomy method. Postoperatively the animals were permitted cage (60 cm×60 cm×40 cm) activity without immobilization. The right knees received via intraartiticular injection DHEA, DHEA-pyruvate or DHEA+HA, 4 weeks after ACLT and once a week for 5 weeks. The left knees received 0.3 ml of intraarticular injection with control solution (carrier solution). After 9 weeks from ACLT, the animas were sacrificed.
(§5) Synovium (entire tissue) around the infrapatellar fat pads and cartilage tissue from the femoral condyle and the tibial plateau were harvested. The subsequent experimental procedure was the same as described in Test Example IV.

TIMP-1 mRNA = assay: Osteoarthritic rabbit model (ACLT), intraarticular injection, RT-PCR of TIMP-1; type: in vivo; settings: rabbit ACLT knee, intraarticular once a week for 5 weeks
Description: as §4, §5

MMP-3 expression = assay: Osteoarthritic rabbit model (ACLT), intraarticular injection, RT-PCR of MMP-3; type: in vivo; settings: rabbit ACLT knee, intraarticular once a week for 5 weeks
Description: as §4, §5

Which results are given for `C[C@]12CC[C@H](O)CC1=CC[C@@H]1[C@@H]2CC[C@]2(C)C(=O)CC[C@@H]12` [DHEA, dehyroepiandrosterone]?
effect on cell proliferation (human chondrocyte; after day 5): insignificant; cell proliferation (human chondrocyte; as early as day 3 of culture): slightly reduced; type I collagen mRNA, maximal inhibition (type I collagen mRNA; 72 hours): 28%; type I collagen production, reduced by (type I collagen mRNA; after 24-72 hr of culture): less than 50%; type I collagen mRNA expression (type I collagen mRNA; after 72 hr): markly inhibited; MMP-3 protein level (Western blot) (MMP-3): did not change; (IL-1β)-induced up-regulation of MMP-1 mRNA, inhibition ([1]; 10 μM DHEA with IL-1β): 74%; (IL-1β)-induced up-regulation of MMP-1 mRNA, inhibition ([1]; 50 μM DHEA with IL-1β): 53%; (IL-1β)-induced IL-6 gene expression [2]: no significantly change; expression of type II collagen (type II collagen mRNA): increased; expression of TIMP-1 (TIMP-1 mRNA): increased; expression of MMP-3 (MMP-3 expression): did not change
